Our source for the EC50 values is patent publication US10899766B2, “Bridged piperidine derivatives” (Hoffmann-La Roche Inc., priority 2016, dated 2021).

The term EC50 denotes the concentration at which the effect is half-maximal. High values mean weaker potency, low ones greater potency.

This experiment deals with γ-secretase. The experiment in a line: Cellular γ-secretase assay (inhibition of Aβ42 secretion, AlphaLisa). It counts as cell-based. The conditions noted are these: Human neuroglioma H4 cells overexpressing human APP695 Swedish double mutation; 24 hr compound incubation; secreted Aβ42 in supernatant. On the procedure: Cellular γ-Secretase Assay
Human neuroglioma H4 cells overexpressing human APP695 with the Swedish double mutation (K595N/M596L) were plated at 30,000 cells/well/100 μl in 96-well plates in IMDM media containing 10% FCS, 0.2 mg/l Hygromycin B and incubated at 37° C., 5% CO2.
3-4 hr post plating, compounds are a diluted in media and 50 μl is added as 1.5-fold concentrate to achieve the final concentration. Compound incubation is performed for 24 hr. Final doses typically range from 4 μM down to 0.0013 μM in half-log steps resulting in a eight point dose response curve.
Appropriate controls using vehicle only and reference compound were applied to this assay. The final concentration of Me2SO was 0.4%.
After incubation at 37° C., 5% CO2, the supernatant was subjected to quantification of secreted Aβ42 by the means of an AlphaLisa assay kit (Human Amyloid beta 1-42 Kit: Cat # AL203C, Perkin Elmer). 20 μl of the cell culture supernatant was transferred to an assay plate. Then 10 μl of a mixture of the AlphaLisa coupled capture antibody and the biotinylated detection antibody was added and incubated for 3 hours at room temperature while softly shaking the assay plate. After a further addition of 20 μl of the Donor beads the assay plate was incubated for 30 min at room temperature and constant shaking without exposure to direct light.
The assay plate was then read on a Paradigm AlphaLisa Reader using the build-in program with excitation at 680 nm and emission at […].
The measured signals were then used to calculate IC50 values for inhibition of Aβ42 secretion by nonlinear regression fit analysis using XLfit 5.3 software (IDBS).
Consider `FC(F)(F)c1ccc(N2CCCn3nc(N[C@@H]4[C@@H]5CC[C@H]4CN(c4ccnc(C(F)(F)F)c4)C5)nc32)cc1` [Example 6, 4-[4-(trifluoromethyl)phenyl]-N-[(1R,5S,8S)-3-[2-(trifluoromethyl)-4-pyridyl]-3-azabicyclo[3.2.1]octan-8-yl]-6,7-dihydro-5H-[1,2,4]triazolo[1,5-a]pyrimidin-2-amine], for which the EC50 was determined as 21.4 nM.
`Cc1noc(N2C[C@H]3CC[C@@H](C2)[C@@H]3Nc2nc3n(n2)CCCN3c2ccc(F)c(F)c2)n1` [Example 15, 4-(3,4-difluorophenyl)-N-[(1R,5S,8S)-3-(3-methyl-1,2,4-oxadiazol-5-yl)-3-azabicyclo[3.2.1]octan-8-yl]-6,7-dihydro-5H-[1,2,4]triazolo[1,5-a]pyrimidin-2-amine] displayed an EC50 of 30.6 nM.
As to `Cc1ccc(N2CCCn3nc(N[C@@H]4[C@@H]5CC[C@H]4CN(c4cc(Cl)ncn4)C5)nc32)cc1F` [Example 13, N-[(1R,5S,8S)-3-(6-chloropyrimidin-4-yl)-3-azabicyclo[3.2.1]octan-8-yl]-4-(3-fluoro-4-methyl-phenyl)-6,7-dihydro-5H-[1,2,4]triazolo[1,5-a]pyrimidin-2-amine], the EC50 stood at 11.4 nM.
